The values that follow come from paper PMC6389962 (Nature Communications, 2019).

One data set in a line: in vitro. As to conditions: mouse, plasma. As for the experimental part: The oligomer was then diluted 1/50 with a solution of plasma/PBS pH 7.4 (1:1) to afford a final concentration of 5 µM and incubated at 37 °C (4 µL of the stock solution was diluted with 196 µL of plasma/PBS, pH 7.4, 1:1). Each compound was also incubated in the absence of plasma (196 µL of H2O/PBS, pH 7.4, 1:1). At the indicated time (20 min and 60 min) an aliquot of 70 µL was removed from each experimental reaction and pipetting into 175 µL of acetonitrile at 0 °C to quench the reaction (t = 0 min was determined using the reaction without plasma). The samples were frozen at –80 °C before analysis. The frozen samples were defrosted, stirred with a vortex 5 min and finally centrifuged 5 min at 16 °C (1500 × g). The supernatant was analysed by LC-MS. The time course of oligomer degradation was determined by integrating the area of the peak in the extracted ion chromatogram.
Supplementar y Figur e 2 : Mouse plasma degradation assay. […] Data are
mean ± SEM, n = 4. Source data are provided as a Source Data file (T able 2 tab).
Supplementar y Figur e 3.
Data are mean ± SEM, n = 3.
Source data are provided as a Source Data file […]

The test system of the next data set is normal mice (C57BL/6J). As to the kind of experiment: Blood glucose study in normal fed mice. The format is in vivo, mouse. On the set-up: key to In vivo activity (indicator): + active; +++: + + + more active. As to conditions: for In vivo activity (indicator): mice, 50 nmol kg−1 i.v.; for time after dosing for which the blood glucose decrease is preserved / effect on blood glucose concentration: normal fed C57BL/6J mice, n = 3, 5 μg per mouse (50 nmol kg−1) i.v.; for effect on blood glucose concentration: monitored 6 h. As for the experimental part: In the first study, we evaluated the effect of the analogues on the blood glucose concentration of normal mice (Fig. 3). The fed mice were treated with the analogues and their blood glucose concentration was monitored before and after dosing for 6 h. […] Indeed, a decrease of blood glucose concentration is observed after 30 min and the effect is preserved for 4 h after dosing.
Fig. 3 Blood glucose study in mice. a–c Blood glucose concentration in normal mice (C57BL/6J, male, 20–25 g, n = 3) before and after dosing: 5 μg per mouse (50 nmol kg^−1) i.v. Formulation: 20 μg mL^−1 in PBS 1×. The dosing was done at T0. Data are mean ± SEM. […] Source data are provided as a Source Data file
After the acclimation period (at least 5 days), mice (male C57BL/6J mice (Charles River laboratories) 8 weeks old, 20–25 g) were randomized into 10 groups (n = 3 per group) according to their body weight. They were acutely treated via i.v. route at 10 am (5 µg per mouse). Blood glucose was measured before dosing and at 30 min, 1, 2, 4, 6 h after dosing in fed conditions.

In data set [1] the test system is fasted normal mice (C57BL/6J). The data set is described as follows: Intraperitoneal glucose tolerance test (IPGTT) in fasted normal mice. The format is in vivo, mouse. As to conditions: for AUC: IPGTT 5 min (Fig 4a), blood glucose AUC 0-120 min. As for the experimental part: In a second study, an IPGTT was performed 30 min after i.v. injections of 1, 14 and the vehicle (Fig. 4b). […] A further IPGTT study was done with a glucose challenge after 2 h of the dosing to investigate the prolonged activity of hybrids 14, 22 and 23 (Fig. 4c).
Fig. 4 IPGTT studies in mice. a–d Intraperitoneal glucose tolerance test (IPGTT) at different time after dosing in fasted normal mice (C57BL/6J, male, 20–25 g). Dosage: 200 μg kg^−1 (50 nmol kg^−1) i.v. Formulation: 20 μg mL^−1 in PBS 1×. IPGTT: glucose 2 g kg^−1 i.p. at T0. a IPGTT after 5 min (n = 4). b IPGTT after 30 min (n = 6). c IPGTT after 2 h (n = 6). d IPGTT after 4 h (n = 3). Area under the curve (AUC) of the corresponding IPGTT curve. Data are mean ± SEM. […] Source data are provided as a Source Data file
After the acclimation period (at least 5 days), mice (male C57BL/6J mice (Charles River laboratories) 6 weeks old, 20–25 g) were randomized into groups according to their body weight. The mice were fasted for 6 h prior being acutely treated via i.v. route (5 µg per mouse i.v. (200 μg kg^−1, 50 nmol kg^−1)) formulated at 20 µg mL^−1 in PBS 1×. The IPGTTs were performed (glucose 2 g kg^−1 i.p.) 5 min, 30 min, 2 h or 4 h after dosing and blood glucose was measured at different time points after the glucose challenge.

Data set [2] concerns the target T1, mouse GLP-1 receptor (Mus musculus, UniProt O35659).
T1 sequence (O35659 22-463): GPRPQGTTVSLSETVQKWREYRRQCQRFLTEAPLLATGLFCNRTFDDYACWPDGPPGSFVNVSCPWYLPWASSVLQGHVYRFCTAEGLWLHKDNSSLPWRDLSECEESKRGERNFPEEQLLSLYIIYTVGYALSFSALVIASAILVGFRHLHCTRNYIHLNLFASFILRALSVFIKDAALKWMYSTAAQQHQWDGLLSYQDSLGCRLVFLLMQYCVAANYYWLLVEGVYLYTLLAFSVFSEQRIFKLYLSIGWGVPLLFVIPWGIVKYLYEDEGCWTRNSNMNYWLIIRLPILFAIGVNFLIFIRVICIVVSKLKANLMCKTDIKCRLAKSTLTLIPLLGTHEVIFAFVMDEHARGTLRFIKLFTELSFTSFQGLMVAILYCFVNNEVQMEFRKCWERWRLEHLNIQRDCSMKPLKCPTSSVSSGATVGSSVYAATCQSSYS
The following applies: for Potency (%), percentage of potency compare to GLP-1-G^2: cAMP production, from EC50. In general terms: cAMP levels reflect the balance of adenylyl cyclase and phosphodiesterase activity.

Data set [3] concerns the target T1, mouse GLP-1 receptor. The data set is described as follows: cell-based.
Where [4] appears, read: fasted C57BL/6J mice, 200 μg kg−1 (50 nmol kg−1) i.v., glucose 2 g kg−1 i.p., n = 6.
The mark [5] stands for this setting: read-out: Top (best-fit value), variable slope four-parameter fit, unconstrained, 14: experiment 1.

SMILES strings stand for the structures. pEC50: −log10 of the molar value. Like-named read-outs stand apart in the source and are kept apart here. Starred links: 1 amine or outer side, 2 acyl side, 3 side chain; linkers in the order of their positions; H or OH if unused. Positions of bridges follow the written chain, without caps; N, C: chain ends. Residues, ends and D or L forms follow the SMILES beside them. Chains are numbered I, II in the order given. X2 = C[C@@H](CNC(=O)N[C@@H](C)CNC(=O)N[C@@H](C)CNC(=O)N[C@@H](C)CNC(=O)[*:2])NC(=O)NC[C@H](CCC(=O)O)NC(=O)NC[C@H](Cc1ccc(O)cc1)N[*:1]; X1 = C[C@@H](CNC(=O)N[C@@H](C)CNC(=O)[*:2])NC(=O)NC[C@H](C)N[*:1]

As usually defined, the half-life is the time needed for the level to fall by half in the phase considered. What is called share remaining is the share of the starting amount still present when the sample was taken. By pEC50 is commonly meant −log10 of the EC50, conventionally taken in molar units. For `CC[C@H](C)[C@H](NC(=O)[C@H](Cc1ccccc1)NC(=O)NC[C@H](C)NC(=O)NC[C@H](C)NC(=O)NC[C@H](C)NC(=O)[C@H](CCC(N)=O)NC(=O)CNC(=O)[C@H](CCC(=O)O)NC(=O)[C@H](CC(C)C)NC(=O)[C@H](Cc1ccc(O)cc1)NC(=O)[C@H](CO)NC(=O)[C@H](CO)NC(=O)[C@@H](NC(=O)[C@H](CC(=O)O)NC(=O)[C@H](CO)NC(=O)[C@@H](NC(=O)[C@H](Cc1ccccc1)NC(=O)[C@@H](NC(=O)CNC(=O)[C@H](CCC(=O)O)NC(=O)CNC(=O)[C@@H](N)Cc1c[nH]cn1)[C@@H](C)O)[C@@H](C)O)C(C)C)C(=O)N[C@@H](C)C(=O)N[C@@H](Cc1c[nH]c2ccccc12)C(=O)N[C@@H](CC(C)C)C(=O)N[C@H](C(=O)N[C@@H](CCCCN)C(=O)NCC(=O)N[C@@H](CCCNC(=N)N)C(=O)NCC(N)=O)C(C)C` [compound 14, GG2[A^uA^uA^u]^18-21] (I: H-HGEGTFTSDVSSYLEGQ / II: FIAWLVKGRG-NH2; linker I:C-II:N via X1), the half-life in the data set “in vitro” (pH 7.4) is 38 min. The share remaining at 20 min, 5 µM in “in vitro” (pH 7.4, % remaining analogue) was 66.9%. The amount remaining at 1 h, 5 µM in the data set “in vitro” (pH 7.4, % remaining analogue) is 30.5%. The “In vivo activity (indicator)” value in the data set on normal mice (C57BL/6J) is recorded as “+++”. Also, the “time after dosing for which the blood glucose decrease is preserved” value in the data set with normal mice (C57BL/6J) is given as 4 h. For the same compound, in the data set with normal mice (C57BL/6J), the “effect on blood glucose concentration” value was “showed an improved efficacy compare to the native peptide 1”. Further, the AUC in data set [1] (mean of n = 4, 2018-03-08) came out at 16833 mg·min/dL; in data set [1] (single animal, 1st of group), 18150 mg·min/dL; in data set [1] (single animal, 2nd of group), 13233 mg·min/dL; in data set [1] (single animal, 3rd of group), 18503 mg·min/dL; in data set [1] (single animal, 4th of group), 17445 mg·min/dL. For the same compound, in data set [1] (fasted C57BL/6J mice, 200 μg kg−1 (50 nmol kg−1) i.v., glucose 2 g kg−1 i.p., n = 3), the “activity in IPGTT 4 h after dosing” value was “still active after 6 h of the treatment”. Also, the “activity in IPGTT 5 min after dosing” value in data set [1] (fasted C57BL/6J mice, 200 μg kg−1 (50 nmol kg−1) i.v., glucose 2 g kg−1 i.p., n = 4) is “both analogues were active”. The “activity in IPGTT 30 min after dosing” value in data set [1] (setting [4]) was “demonstrated full activity”. In data set [1] (setting [4]), the “activity in IPGTT 2 h after dosing” value is given as “good control of the blood glucose concentration during the IPGTT”. Further, the “Potency (%), percentage of potency compare to GLP-1-G^2” value on mouse GLP-1 receptor [2] is on record as 6%. Also, the pEC50 at mouse GLP-1 receptor [3] was 8.39. The Emax is 116% at mouse GLP-1 receptor [3] (read-out: Top (best-fit value), fit with BOTTOM = 0%, 14: experiment 1); 117% on mouse GLP-1 receptor [3] (read-out: Top (best-fit value), fit with BOTTOM = 0%, 14 experiment 2); 100% at mouse GLP-1 receptor [3] (read-out: Top (best-fit value), fit with BOTTOM = 0%, 14 experiment 3); 116% at mouse GLP-1 receptor [3] (read-out: Top (best-fit value), fit with BOTTOM = 0%, 14 experiment 4); 103% at mouse GLP-1 receptor [3] (setting [5]); 116% on mouse GLP-1 receptor [3] (read-out: Top (best-fit value), variable slope four-parameter fit, unconstrained, 14 experiment 2). Besides, the Emax at mouse GLP-1 receptor [3] (read-out: Top (best-fit value), variable slope four-parameter fit, unconstrained, 14 experiment 3) was 99.8%; on mouse GLP-1 receptor [3] (read-out: Top (best-fit value), variable slope four-parameter fit, unconstrained, 14 experiment 4), 119%.
With `CC[C@H](C)[C@H](NC(=O)[C@H](Cc1ccccc1)NC(=O)NC[C@H](C)NC(=O)NC[C@H](C)NC(=O)NC[C@H](C)NC(=O)NC[C@H](C)NC(=O)NC[C@H](CCC(=O)O)NC(=O)NC[C@H](Cc1ccc(O)cc1)NC(=O)[C@H](Cc1ccc(O)cc1)NC(=O)[C@H](CO)NC(=O)[C@H](CO)NC(=O)[C@@H](NC(=O)[C@H](CC(=O)O)NC(=O)[C@H](CO)NC(=O)[C@@H](NC(=O)[C@H](Cc1ccccc1)NC(=O)[C@@H](NC(=O)CNC(=O)[C@H](CCC(=O)O)NC(=O)CNC(=O)[C@@H](N)Cc1c[nH]cn1)[C@@H](C)O)[C@@H](C)O)C(C)C)C(=O)N[C@@H](C)C(=O)N[C@@H](Cc1c[nH]c2ccccc12)C(=O)N[C@@H](CC(C)C)C(=O)N[C@H](C(=O)N[C@@H](CCCCN)C(=O)NCC(=O)N[C@@H](CCCNC(=N)N)C(=O)NCC(N)=O)C(C)C` [compound 23, GG2[Y^uE^uA^uA^uA^uA^u]^14-21] (I: H-HGEGTFTSDVSSY / II: FIAWLVKGRG-NH2; linker I:C-II:N via X2), in the data set “in vitro” (pH 7.4), the half-life at 5 µM was determined as 39 min. This compound yielded a fraction remaining at 1 h, 5 µM in “in vitro” (pH 7.4, % remaining analogue) of 24.8%. In addition, in the data set with normal mice (C57BL/6J), the “In vivo activity (indicator)” value was “+++”, the “time after dosing for which the blood glucose decrease is preserved” value worked out at 4 h and the “effect on blood glucose concentration” value is recorded as “showed an improved efficacy compare to the native peptide 1”. Further, in data set [1] (setting [4]), the “activity in IPGTT 2 h after dosing” value is “good control of the blood glucose concentration during the IPGTT”. At mouse GLP-1 receptor [2], the “LogEC50 (best-fit value)” value is listed as -8.466 and the “Potency (%), percentage of potency compare to GLP-1-G^2” value amounted to 7%. Besides, the pEC50 at mouse GLP-1 receptor [3] was 8.47. In addition, the Emax on mouse GLP-1 receptor [3] (setting [5]) was 100%.
